Patent US12377102B2, “Compounds for the prevention and treatment of medical disorders and uses thereof” (GALECTIN SCIENCES, LLC, priority 2017, dated 2025)

Key:
recombinant human Gal-3 = target: T1, recombinant human Gal-3 (Homo sapiens, UniProt P17931); experiment: 1H-15N HSQC NMR shifts of 15N-labeled Gal-3 on compound addition; format: binding; details: full Gal-3
T1 construct: shifts of whole molecule of Gal-3 (Gal-3 FL); made in house; host or cells: E. coli BL21 (DE3)
Method: Heteronuclear ^15N NMR spectroscopy was used to evaluate the interaction of compounds described herein with galectin molecules, including but not limited to Gal-3, to assess the interaction residues on the Gal-3 molecule.
NMR experiments were carried out at 30° C. on Bruker 600 MHz, 700 MHz or 850 MHz spectrometers equipped with H/C/N triple-resonance probes and x/y/z triple-axis pulse field gradient units. […] Raw data were converted and processed by using NMRPipe and were analyzed by using NMRview.

[1] = target: Gal-3 binding to IGF-R1 (gene IGF1R) (Homo sapiens, UniProt P17931); experiment: ELISA Gal-3 binding to Insulin Like Growth Factor 1 Receptor; details: FIGS. 12G-1 to 12G-3
Chain of Gal-3 binding to IGF-R1 (gene IGF1R) (P17931 2-250 limits assumed): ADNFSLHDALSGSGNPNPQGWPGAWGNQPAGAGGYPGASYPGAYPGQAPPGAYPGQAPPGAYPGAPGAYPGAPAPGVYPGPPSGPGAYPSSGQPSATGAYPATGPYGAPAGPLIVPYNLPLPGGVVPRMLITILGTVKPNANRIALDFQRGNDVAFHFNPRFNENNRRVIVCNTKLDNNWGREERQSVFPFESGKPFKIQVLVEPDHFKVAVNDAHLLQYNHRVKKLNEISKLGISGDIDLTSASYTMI
Method: Using the ELISA composition assay described herein, in which the compounds were incubated with Gal-3 and the binding of Gal-3 with IGF-Receptor was tested.

[2] = target: Gal-3 binding to Integrin αMβ2 (Homo sapiens, UniProt P17931); experiment: ELISA Gal-3 binding to integrin αMβ2
Chain of Gal-3 binding to Integrin αMβ2 (P17931 2-250 limits assumed): as above
Description: Illustrations of functional assays with Gal-3 binding pairing specific antibody with a Glycoprotein ligand, e.g. Gal-3 Binding-Protein (Gal-3 BP), Integrins, etc. (FIGS. 7A and 7B).
(§1) Activated ELISA plate is coated with αMβ2 integrin.

Gal-3 CRD = Gal-3 CRD (Homo sapiens, UniProt P17931); experiment: Fluorescence Polarization with fluorescein-labeled carbohydrate probe; format: binding; details: FITC linked lactose derivative probe
Chain of Gal-3 CRD (P17931 whole entry): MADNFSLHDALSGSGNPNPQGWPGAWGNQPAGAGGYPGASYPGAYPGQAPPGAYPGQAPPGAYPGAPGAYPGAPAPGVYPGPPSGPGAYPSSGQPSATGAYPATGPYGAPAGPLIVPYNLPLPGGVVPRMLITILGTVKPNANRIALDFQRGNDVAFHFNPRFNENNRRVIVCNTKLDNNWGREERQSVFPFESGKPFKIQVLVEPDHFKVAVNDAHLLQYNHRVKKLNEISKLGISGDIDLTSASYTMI

[3] = target: galectin 1 interaction with integrin αMβ2 (Homo sapiens, UniProt P09382); experiment: ELISA galectin 1 interaction with integrin αMβ2; format: binding; details: FIG. 8E
Chain of galectin 1 interaction with integrin αMβ2 (P09382 2-135 limits assumed): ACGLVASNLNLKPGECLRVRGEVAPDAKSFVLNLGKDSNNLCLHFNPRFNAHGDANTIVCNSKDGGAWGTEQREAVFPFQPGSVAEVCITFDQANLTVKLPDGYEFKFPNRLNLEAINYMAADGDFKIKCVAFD

[4] = target: galectin 9 interaction with integrin αMβ2 (Homo sapiens, UniProt O00182); experiment: ELISA galectin 9 interaction with integrin αMβ2; format: binding; details: FIG. 8E
Chain of galectin 9 interaction with integrin αMβ2 (O00182 whole entry): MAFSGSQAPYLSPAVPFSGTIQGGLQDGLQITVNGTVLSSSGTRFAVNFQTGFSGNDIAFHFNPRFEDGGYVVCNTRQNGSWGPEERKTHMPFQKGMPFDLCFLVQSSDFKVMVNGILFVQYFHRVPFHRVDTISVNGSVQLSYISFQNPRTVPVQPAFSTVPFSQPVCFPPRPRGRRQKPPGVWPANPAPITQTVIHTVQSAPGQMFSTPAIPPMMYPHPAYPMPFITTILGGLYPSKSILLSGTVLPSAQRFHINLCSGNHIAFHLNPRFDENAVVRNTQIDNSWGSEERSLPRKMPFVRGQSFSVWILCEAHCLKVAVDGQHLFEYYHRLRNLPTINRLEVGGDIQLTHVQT
Description: as §1

T1 sequence (P17931 whole entry): as the sequence (P17931 whole entry) above

Cc1ccc(COc2ccc(C=C3CCn4c3nc(=O)c3ccccc34)cc2)cc1 [AGS-0144, 3-({4-[(4-methylphenyl)methoxy]phenyl}methylidene)-1H,2H,3H,5H-pyrrolo[1,2-a]quinazolin-5-one]
interaction with amino-acids located in the CRD site (HSQC NMR) (recombinant human Gal-3): have not directly interact with these amino-acids

OC[C@H]1O[C@@H](S[C@@H]2O[C@H](CO)[C@H](O)[C@H](n3cc(-c4cccc(F)c4)nn3)[C@H]2O)[C@H](O)[C@@H](n2cc(-c3cccc(F)c3)nn2)[C@H]1O [TD-139]
effect on Gal-3 binding to IGF-R1 [1]: cause inhibition | specificity for Gal-3 vs other galectins (1, 8, 9) ([2]; ELISA with integrin αMβ2, FIGS. 8D and 8E): non-specific interaction | inhibition of Integrin αMβ2 interaction with Gal-3 ([2]; ELISA, FIGS. 8B, 8C, 12C): inhibition | Fluorescent Polarization inhibition signal (Gal-3 CRD): strong signal | inhibition of galectin 1 interaction with integrin αMβ2 [3]: inhibited | inhibition of galectin 9 interaction with integrin αMβ2 [4]: inhibited | interaction with amino-acids located in the CRD site (HSQC NMR) (recombinant human Gal-3): create disturbances of amino-acid located in the CRD site
